These results are taken from patent US7642354B2, “Polycyclic pyrazines as potassium ion channel modulators” (Icagen, Inc., priority 2004, dated 2010).

Each structure is given as a SMILES string. A value given as a limit tells only on which side of the number the result lay.

For the assay, the target named is hSK2 (Homo sapiens, UniProt Q9H2S1). The experiment in a line: Assay for compound activity towards hSK channels (86Rb+ efflux). The class given is cell-based. The following applies: 86Rb+ efflux stimulated with calcium ionophore; drug 0.01 to 30 μM in EBSS; read-out: hSK2 Inhibitory Activity. Here is the method: 18.1 Assay for Compound Activity Towards hSK Channels Cells expressing small conductance, calcium activated potassium channels, such as SK-like channels were loaded with ^86Rb^+ by culture in media containing ^86RbCl. Following loading, the culture media was removed and the cells were washed in EBSS to remove residual traces of ^86Rb^+. Cells were preincubated with the drug (0.01 to 30 μM in EBSS) and then ^86Rb^+ efflux was stimulated by exposing cells to EBSS solution supplemented with a calcium ionophore, such as ionomycin, in the continued presence of the drug. After a suitable efflux period, the EBSS/ionophore solution was removed from the cells and the ^86Rb^+ content was determined by Cherenkov counting (Wallac Trilux). Cells were then lysed with a SDS solution and the ^86Rb^+ content of the lysate was determined. Percent ^86Rb^+ efflux was calculated according to the following equation: (^86Rb^+ content in EBSS/(^86Rb^+ content in EBSS+^86Rb^+ content of the lysate))×100
Consider `CC1CCN(c2ccc(Nc3cncc(-c4ccccn4)n3)nc2)CC1` [(4-Methyl-3,4,5,6-tetrahydro-2H-[1,3′]bipyridinyl-6′-yl)-(6-pyridin-2-yl-pyrazin-2-yl)-amine], for which the IC50 was 0.05 to 1 µM.

With `c1ccc(-c2cncc(Nc3ncccn3)n2)nc1` [(6-Pyridin-2-yl-pyrazin-2-yl)-pyrimidin-2-yl-amine], the IC50 was 3 to 30 µM. Consider `Cc1ccnc(Nc2cncc(-c3ccccn3)n2)c1` [(4-Methyl-pyridin-2-yl)-(6-pyridin-2-yl-pyrazin-2-yl)-amine], for which the IC50 was less than 0.05 µM. `CC(=O)c1sc(Nc2cncc(-c3ccccn3)n2)nc1C` [1-[4-Methyl-2-(6-pyridin-2-yl-pyrazin-2-ylamino)-thiazol-5-yl]ethanone]: the IC50 lay within 3 to 30 µM.

On to `c1ccc(-c2cncc(Nc3cnccn3)n2)nc1` [Pyrazin-2-yl-(6-pyridin-2-yl-pyrazin-2-yl)-amine], for which the IC50 is 0.05 to 1 µM. For the compound `O=C(c1ccccc1)c1nccnc1Nc1cncc(-c2ccccn2)n1` [Phenyl-[3-(6-pyridin-2-yl-pyrazin-2-ylamino)-pyrazin-2-yl]-methanone], the IC50 was 3 to 30 µM.

As to `CN1CCN(c2ccc(Nc3cncc(-c4ccccn4)n3)nc2)C(=O)C1` [4-Methyl-1-[6-(6-pyridin-2-yl-pyrazin-2-ylamino)-pyridin-3-yl]-piperazin-2-one], the IC50 lay within 3 to 30 µM.

For the compound `c1ccc(-c2cncc(Nc3cc(-c4cccs4)n[nH]3)n2)nc1` [(6-Pyridin-2-yl-pyrazin-2-yl)-(5-thiophen-2-yl-2H-pyrazol-3-yl)-amine], the IC50 was 3 to 30 µM. As to `Cn1c(Nc2cncc(-c3ccccn3)n2)nc2ccccc21` [(1-Methyl-1H-benzoimidazol-2-yl)-(6-pyridin-2-yl-pyrazin-2-yl)-amine], the IC50 lay within 3 to 30 µM. Consider `Fc1cccc(-c2ccc(Nc3cncc(-c4ccccn4)n3)nc2)c1` [[5-(3-Fluoro-phenyl)-pyridin-2-yl]-(6-pyridin-2-yl-pyrazin-2-yl)-amine], for which the IC50 was 0.05 to 1 µM.

As to `c1ccc(-c2cncc(Nc3cc(-c4ccco4)n[nH]3)n2)nc1` [(5-Furan-2-yl-2H-pyrazol-3-yl)-(6-pyridin-2-yl-pyrazin-2-yl)-amine], the IC50 lay within 3 to 30 µM.

Turning to `c1ccc(-c2cncc(Nc3ccc(N4CCCCC4)cn3)n2)nc1` [(6-Pyridin-2-yl-pyrazin-2-yl)-(3,4,5,6-tetrahydro-2H-[1,3′]bipyridinyl-6′-yl)-amine], the IC50 was less than 0.05 µM. `COc1cc(OC)nc(Nc2cncc(-c3ccccn3)n2)n1` [(4,6-Dimethoxy-pyrimidin-2-yl)-(6-pyridin-2-yl-pyrazin-2-yl)-amine]: the IC50 was in the range of 3 to 30 µM. Turning to `Cc1nnc(Nc2cncc(-c3ccccn3)n2)s1` [(5-Methyl-[1,3,4]thiadiazol-2-yl)-(6-pyridin-2-yl-pyrazin-2-yl)-amine], the IC50 was in the range of 3 to 30 µM. As to `COc1cccc(-c2cncc(-c3cccc(OC)n3)n2)n1` [2,6-Bis-(6-methoxy-pyridin-2-yl)-pyrazine], the IC50 is 3 to 30 µM.

Consider `Cc1cc(Nc2cncc(-c3ccccn3)n2)c2ccccc2n1` [(2-Methyl-quinolin-4-yl)-(6-pyridin-2-yl-pyrazin-2-yl)-amine], for which the IC50 lay within 3 to 30 µM. On to `NC(=O)c1cnn(-c2ccccc2)c1Nc1cncc(-c2ccccn2)n1` [1-Phenyl-5-(6-pyridin-2-yl-pyrazin-2-ylamino)-1H-pyrazole-4-carboxylic acid amide], for which the IC50 fell in the range of 3 to 30 µM.

With `Nc1ccc(Nc2cncc(-c3ccccn3)n2)nc1` [N^2-(6-Pyridin-2-yl-pyrazin-2-yl)-pyridine-2,5-diamine], the IC50 lay in the range of 0.05 to 1 µM.

For the compound `Clc1ccc(Nc2cncc(-c3cc(N4CCCC4)ccn3)n2)nc1` [(5-Chloro-pyridin-2-yl)-[6-(4-pyrrolidin-1-yl-pyridin-2-yl)-pyrazin-2-yl]-amine], the IC50 fell in the range of 1 to 3 µM. For `NC(=O)c1ccc(Nc2cncc(-c3ccccn3)n2)nc1` [6-(6-Pyridin-2-yl-pyrazin-2-ylamino)-nicotinamide], the IC50 lay in the range of 3 to 30 µM. In the case of `N#Cc1cncnc1Nc1cncc(-c2ccccn2)n1` [4-(6-Pyridin-2-yl-pyrazin-2-ylamino)-pyrimidine-5-carbonitrile] it was 3 to 30 µM; in that of `c1ccc(-c2cncc(Nc3ccc(-c4cccs4)cn3)n2)nc1` [(6-Pyridin-2-yl-pyrazin-2-yl)-(5-thiophen-2-yl-pyridin-2-yl)-amine], 0.05 to 1 µM; in that of `CCCCCOc1cccnc1Nc1cncc(-c2ccccn2)n1` [(3-Pentyloxy-pyridin-2-yl)-(6-pyridin-2-yl-pyrazin-2-yl)-amine], 3 to 30 µM.

For `COCCN(C)c1ccc(Nc2cncc(-c3ccccn3)n2)nc1` [N^5-(2-Methoxy-ethyl)-N^5-methyl-N^2-(6-pyridin-2-yl-pyrazin-2-yl)-pyridine-2,5-diamine], the IC50 is less than 0.05 µM. Regarding `COc1cccc(-c2cncc(Nc3ccc(Cl)cn3)n2)n1` [(5-Chloro-pyridin-2-yl)-[6-(6-methoxy-pyridin-2-yl)-pyrazin-2-yl]-amine], the IC50 lay in the range of 3 to 30 µM. For `COc1ccccc1-c1ccc(Nc2cncc(-c3ccccn3)n2)nc1` [[5-(2-Methoxy-phenyl)-pyridin-2-yl]-(6-pyridin-2-yl-pyrazin-2-yl)-amine], the IC50 is 0.05 to 1 µM.

With `O=C1CCCN1c1ccc(Nc2cncc(-c3ccccn3)n2)nc1` [1-[6-(6-Pyridin-2-yl-pyrazin-2-ylamino)-pyridin-3-yl]-pyrrolidin-2-one], the IC50 was less than 0.05 µM. For `c1ccc(-c2cncc(Nc3ccc(N4CCCC4)cn3)n2)nc1` [(6-Pyridin-2-yl-pyrazin-2-yl)-(5-pyrrolidin-1-yl-pyridin-2-yl)-amine], the IC50 was less than 0.05 µM.

`c1ccc(-c2cncc(Nc3ccncn3)n2)nc1` [(6-Pyridin-2-yl-pyrazin-2-yl)-pyrimidin-4-yl-amine]: the IC50 is 3 to 30 µM. As for `c1ccc(COc2cccnc2Nc2cncc(-c3ccccn3)n2)cc1` [(3-Benzyloxy-pyridin-2-yl)-(6-pyridin-2-yl-pyrazin-2-yl)-amine], the IC50 is 3 to 30 µM. Consider `Cc1cc(Nc2cncc(-c3ccccn3)n2)[nH]n1` [(5-Methyl-2H-pyrazol-3-yl)-(6-pyridin-2-yl-pyrazin-2-yl)-amine], for which the IC50 was 0.05 to 1 µM. On to `Cc1ccc(-c2cncc(Nc3ccc(F)cn3)n2)nc1` [(5-Fluoro-pyridin-2-yl)-[6-(5-methyl-pyridin-2-yl)-pyrazin-2-yl]-amine], for which the IC50 is 3 to 30 µM. Turning to `Cc1cnn(-c2cncc(Nc3ccc(I)cn3)n2)c1` [(5-Iodo-pyridin-2-yl)-[6-(4-methyl-pyrazol-1-yl)-pyrazin-2-yl]-amine], the IC50 lay in the range of 3 to 30 µM. In the case of `Cc1cnn(-c2cncc(Nc3ccc(-c4ccccc4)cn3)n2)c1` [[6-(4-Methyl-pyrazol-1-yl)-pyrazin-2-yl]-(5-phenyl-pyridin-2-yl)-amine] it was 3 to 30 µM. With `CCOC(=O)c1c[nH]nc1Nc1cncc(-c2ccccn2)n1` [3-(6-Pyridin-2-yl-pyrazin-2-ylamino)-1H-pyrazole-4-carboxylic acid ethyl ester], the IC50 lay in the range of 3 to 30 µM. Take `c1ccc(-c2ccc(Nc3cncc(-c4ccccn4)n3)nc2)cc1` [(5-Phenyl-pyridin-2-yl)-(6-pyridin-2-yl-pyrazin-2-yl)-amine]: the IC50 fell in the range of 0.05 to 1 µM. Take `c1ccc(-c2cncc(Nc3ccc(-c4ccsc4)cn3)n2)nc1` [(6-Pyridin-2-yl-pyrazin-2-yl)-(5-thiophen-3-yl-pyridin-2-yl)-amine]: the IC50 is 0.05 to 1 µM. For `c1ccc(-c2cncc(Nc3nnn[nH]3)n2)nc1` [(6-Pyridin-2-yl-pyrazin-2-yl)-(1H-tetrazol-5-yl)-amine], the IC50 lay in the range of 3 to 30 µM. `Cc1ccc(-c2ccc(Nc3cncc(-c4ccccn4)n3)nc2)o1` [[5-(5-Methyl-furan-2-yl)-pyridin-2-yl]-(6-pyridin-2-yl-pyrazin-2-yl)-amine]: the IC50 is 0.05 to 1 µM. Turning to `Cc1ccnc(Nc2cncc(-c3ccccn3)n2)c1[N+](=O)[O-]` [(4-Methyl-3-nitro-pyridin-2-yl)-(6-pyridin-2-yl-pyrazin-2-yl)-amine], the IC50 lay in the range of 3 to 30 µM.

On to `CCOC(=O)c1sc(Nc2cncc(-c3ccccn3)n2)nc1-c1ccccc1` [4-Phenyl-2-(6-pyridin-2-yl-pyrazin-2-ylamino)-thiazole-5-carboxylic acid ethyl ester], for which the IC50 is 3 to 30 µM.

Regarding `c1ccc(-c2csc(Nc3cncc(-c4ccccn4)n3)n2)cc1` [(4-Phenyl-thiazol-2-yl)-(6-pyridin-2-yl-pyrazin-2-yl)-amine], the IC50 lay in the range of 3 to 30 µM.

Take `Brc1ccc(Nc2cncc(-c3ccccn3)n2)nc1` [(5-Bromo-pyridin-2-yl)-(6-pyridin-2-yl-pyrazin-2-yl)-amine]: the IC50 fell in the range of 0.05 to 1 µM. In the case of `c1ccc(Nc2cncc(-c3cc4ccccc4s3)n2)nc1` [(6-Benzo[b]thiophen-2-yl-pyrazin-2-yl)-pyridin-2-yl-amine], the IC50 lay within 3 to 30 µM. In the case of `c1ccc(-c2cncc(Nc3nccnn3)n2)nc1` [(6-Pyridin-2-yl-pyrazin-2-yl)-[1,2,4]triazin-3-yl-amine] it was 3 to 30 µM; in that of `Cc1noc(Nc2cncc(-c3ccccn3)n2)c1C` [(3,4-Dimethyl-isoxazol-5-yl)-(6-pyridin-2-yl-pyrazin-2-yl)-amine], 3 to 30 µM; in that of `NC(=O)c1ncc(-c2ccccn2)nc1Nc1ccccn1` [5-Pyridin-2-yl-3-(pyridin-2-ylamino)-pyrazine-2-carboxylic acid amide], 3 to 30 µM. Consider `CCN(CC)C(=O)c1ccc(Nc2cncc(-c3ccccn3)n2)nc1` [N,N-Diethyl-6-(6-pyridin-2-yl-pyrazin-2-ylamino)-nicotinamide], for which the IC50 lay within 3 to 30 µM.
